From publication PMC7914367, “Dual-ligand supramolecular nanofibers inspired by the renin-angiotensin system for the targeting and synergistic therapy of myocardial infarction” (Theranostics, 2021)
Peptide text beside a SMILES is read from it. * marks the point of attachment. X1 = CN1/C(=C/C=C/C=C/C2=[N+](CCCCCC(=O)*)c3ccc4ccccc4c3C2(C)C)C(C)(C)c2c1ccc1ccccc21

Assays:
[1] = test system: MI mouse model; assay: In vivo mechanism: caspase-3 IHC, α-SMA immunofluorescence, type I collagen, TGF-β1, serum cytokines; parameters: species or system C57BL/6 mice; conditions: MI mice, n = 5
Description: Frozen sections were prepared in vivo, as described previously. For drugs distribution, near-infrared laser imager (GE Amersham Typhoon, Sweden) was used to capture full cross section of hearts. For co-localization experiments, the mice hearts were dissected 24 h post-injection of drugs. Anti-AT1R primary antibody (1:200 dilution) was used as the primary antibody. For fibrosis investigation, the frozen sections were incubated with primary antibodies against α-SMA (1:400 dilution). The staining signals were visualized using FITC-labeled Goat Anti-Rabbit IgG (1:200 dilution) or Cy3-labeled Goat Anti-Rabbit IgG (1:200 dilution). The sections were counterstained with DAPI and examined under a laser confocal scanning microscope (Leica TCS SP8, Germany).
The heart tissues were fixed in 4% paraformaldehyde, dehydrated in ethanol, cleared in xylene, and embedded in paraffin. The samples were then cut into 6 μm sections on a microtome and deparaffinized. The sections were blocked by incubating with 1% BSA at room temperature for 30 min and then incubated overnight with anti-cleaved caspase-3 (1:700 dilution), anti-AT1R (1:100 dilution), anti-Collagen I (1:200 dilution) at 4 °C. Next, the sections were washed and incubated with secondary antibodies (1:500 dilution) at room temperature. The tissue sections were incubated with diaminobenzidine and counterstained with hematoxylin, dehydrated, and mounted before viewing under a microscope.
(§1) The serum and CM were collected at the indicated time points from the different groups of mice. The levels of TNF-α, IL-6, ALT, Cre, and TGF-β1 were measured using ELISA kits according to the manufacturer's protocol. The absorbance was measured at 450 nm using a microplate reader.

[2] = test system: MI mouse model; assay: Masson's trichrome staining, infarct size; type: in vivo, C57BL/6 mice; conditions: MI mice, 4 weeks, collagen area/LV area, MI group 36.60%, vehicle 1219.84 μg/kg, n = 5
Description: (§2) Adult male C57BL/6 mice (20-30 g, 8-10 week) were purchased from the laboratory animal center of Southern Medical University, China. The protocols were approved according to the Zhujiang Hospital of Southern Medical University animal care and use committee guidelines, which conform to the guide for the care and use of laboratory animals published by the US National Institutes of Health (8th edition, 2011). […] Next, 100 µL of different drugs were administered intravenously through tail vein injection every 2 days for 3 weeks, while the mice in the Sham and MI groups were treated with an equal volume of PBS.
The mice were sacrificed at 4 weeks after the induction of MI, and hearts and major organs were harvested and fixed in 4% paraformaldehyde overnight and embedded in paraffin. The hearts were sectioned to 5 µm along the short axis transversely across the infarct zone. The major organs were sectioned to 5 µm along the short axis. Following deparaffinization and dehydration, the samples underwent H&E and Masson's trichrome staining. The sections were observed under a microscope to evaluate the therapeutic effect and safety of the drugs. The collagen and LV areas were measured using the Image-Pro Plus software (version 6.0; Media Cybernetics, Silver Spring, MD, USA). Infarct size (%) was calculated as the ratio of the collagen area to the LV area.

[3] = test system: NRCFs; assay: Conditioned medium interference experiments (TGF-β1 in CM, α-SMA in NRCFs); type: cell-based, rat; conditions: NRCFs cultured 24 h with conditioned medium of pretreated OGD NRCMs, immunofluorescence, n = 3
Description: Next, the cells were blocked by incubating with goat serum for 30 min and incubated with primary antibodies overnight at 4 °C. The primary antibodies used here included anti-AT1R (1:200 dilution), anti-cTNT (1:500 dilution), anti-P65 (1:800 dilution), and anti‐α-SMA (1:400 dilution). The cells were incubated with FITC-labeled Goat Anti-Rabbit IgG (1:200 dilution) or Cy3-labeled Goat Anti-Mouse IgG (1:200 dilution) for 2 h at room temperature. The cells were counterstained with DAPI and imaged using a fluorescence microscope (Leica Dmi8, Germany).
CM from untreated or compound-treated cells were produced as follows. NRCMs were seeded in 35 mm culture dishes at 1 × 10^6 cells per well and incubated in growth medium containing different compounds or in media devoid of compounds for 12 h. Next, the media were replaced with serum-free medium, and the cells were cultured under hypoxia for 6 h. The CM was collected and centrifuged to culture NRCFs after a 12 h starvation period. Immunofluorescence of α-SMA was analyzed as per protocol after 24 h.
as §1

[4] = test system: NRCMs; assay: Intracellular ROS with DHE probe; type: cell-based, rat; conditions: OGD NRCMs, 10 μM; OGD group 5.72-fold; n = 3
Description: The cells were counterstained with DAPI and were observed under a fluorescence microscope (details in Supporting Information). […]
(§3) manufacturer ’s protocol. Cells were then stained with DAPI. The TUNEL positive cells were observed by the fluorescence microscope (λexc = 488 nm for TUNEL, λexc = 405 […]
Intracellular ROS was quantified with dihydroethidium (DHE). After incubated with different treatments under OGD condition, NRCMs were then cultured with DMEM medium containing […] of DHE for 30 min at 37 ℃ and then wash ed twice with PBS. Nucleuses of NRCMs were dyed by Hoechst 33342 stain solution for 30 min at 37 °C. Intracellular ROS were detected by the fluorescence microscope (λexc = 532 nm for DHE, λexc = 405 nm for Hoechst 33342).
Adult male C57BL/6 mice (20-30g, 8-10 weeks old) were purchased from the laboratory animal center of Southern Medical University. For the MI model, mice were subjected to permanent l eft anterior descending (LAD) ligation as described previously. In brief, the animals were anesthetized using 1.5% sodium pentobarbital (50 mg/kg) through intraperitoneal i njection, and mice were ventilated with a rodent ventilator subsequently. We exposed mice hearts by the fourth intercostal space incision and a subsequent pericardium removal. The LAD was ligated using an 8-0-prolene suture permanently to perform MI generation. […]

[5] = test system: NRCMs; assay: TUNEL staining of OGD NRCMs; type: cell-based, rat; conditions: 10 μM, 2-3 h, OGD group 26.70%, n = 3
[6] = test system: p-AKT, Bax/Bcl-2, cleaved caspase-3; assay: Western blot of apoptosis-related proteins in OGD NRCMs; type: cell-based, rat; conditions: vs OGD group, n = 3
Description: AKT, p-AKT, Bax, Bcl-2, cleaved caspase-3, P65, TGF-β1, Histone3, AT1R, GAPDH were quantified by western blot analysis. Protein concentration was determined using the bicinchoninic acid (BCA) method. SDS-PAGE was conducted to separate the proteins in each sample (30-50 µg of protein per lane), which were subsequently transferred to a PVDF membrane. The membranes were treated with blocking buffer for 2 h at room temperature and then incubated overnight with primary antibodies at 4 °C. The primary antibodies used included anti-Phospho-AKT (1:1000 dilution), anti-AKT (1:1000 dilution), anti-caspase-3 (1:1000 dilution), anti-Bcl-2 (1:100 dilution), anti-Bax (1:1000 dilution), anti-P65 (1:800 dilution), anti-TGF-β1 (1:1000 dilution), anti-Histone 3 (1:1000 dilution) and anti-AGTR1 (1:1000 dilution). The results were normalized by comparison to parallel western blots for glyceraldehyde 3-phosphate dehydrogenase (GAPDH, 1:8000 dilution). Optical density was measured using an image processing analysis program.

[7] = test system: MI mouse model; assay: Echocardiography post-MI; type: in vivo, C57BL/6 mice; conditions: MI mice, 4th week, tail vein every 2 days (TDCNfs 1084.16, T+A 328.96+576, Tel 328.96, Ang1-7 576 μg/kg); MI group approx 16%; n = 5
Description: as §2
Twenty-eight days after surgery, the mice were anesthetized through the inhalation of isoflurane (1-1.5%) in O2 and echocardiographic examination was performed using a Vevo 2100 System equipped with a 30 MHz transducer (FUJIFILM Visual Sonics, Canada). The LVEDD, LVESD, LVEFs, and LVFS were measured. All measurements were repeated for at least three consecutive pulsation cycles and the data were averaged for statistical analysis. […]
as §3
(§4) Intracellular ROS was quantified with dihydroethidium (DHE). […] Intracellular ROS were detected by the fluorescence microscope (λexc = 532 nm for DHE, λexc = 405 nm for Hoechst 33342). […]

[8] = test system: infarcted heart; parameters: species or system C57BL/6 mice; conditions: mouse, in vivo
Description: ^Cy5.5TDCNfs, ^Cy5.5SAA1-7, and ^Cy5.5Ang1-7 were injected intravenously into the mice via tail vein at a dose of 0.2 mg. The images were captured at the prefixed time. Next, the mice were sacrificed to harvest their hearts and major organs. The samples were imaged at an excitation wavelength of 630 nm and an emission wavelength of 700 nm using an in vivo imaging system (FX PRO, BRUKER, Germany). The images were analyzed using the BRUKER Molecular Imaging Software. The targeting ability of compounds was defined by HTI = heart fluorescence emission/liver fluorescence emission.
Frozen sections were prepared in vivo, as described previously. For drugs distribution, near-infrared laser imager (GE Amersham Typhoon, Sweden) was used to capture full cross section of hearts. For co-localization experiments, the mice hearts were dissected 24 h post-injection of drugs. Anti-AT1R primary antibody (1:200 dilution) was used as the primary antibody. For fibrosis investigation, the frozen sections were incubated with primary antibodies against α-SMA (1:400 dilution). […]
manufacturer ’s protocol. […] The TUNEL positive cells were observed by the fluorescence microscope (λexc = 488 nm for TUNEL, λexc = 405 […]
as §4

Compound | α-SMA expression in the non-infarcted area ([1]; 4 weeks post-treatment, immunofluorescence) | caspase-3 expression in infarct border zone ([1]; immunohistochemistry) | infarct size [2] | reduction of α-SMA levels in NRCFs compared to the OGD group [3] | fluorescence intensity of superoxide anion (DHE) compared to the control group [4] | TUNEL-positive NRCMs [5] | decrease of Bax/Bcl-2 value [6] | increase of p-AKT expression [6] | left ventricular ejection fractions (LVEFs) [7] | overlapping signals with AT1R in infarct zone compared with Cy5.5TDCNfs group [8]
CCCc1nc2c(C)cc(-c3nc4ccccc4n3C)cc2n1Cc1ccc(-c2ccccc2C(=O)O)cc1 [Tel, telmisartan] | inhibited to a certain extent | reduced moderately | 25.80% | 20.48% | 3.23 fold | 17.62% | 76.3% | more than 10 fold | 29.54% | 
CC[C@H](C)[C@H](NC(=O)[C@H](Cc1ccc(O)cc1)NC(=O)[C@@H](NC(=O)[C@H](CCCNC(=N)N)NC(=O)[C@H](CC(=O)O)NC(=O)CNC(=O)CCCCC[N+]1=C(/C=C/C=C/C=C2/N(C)c3ccc4ccccc4c3C2(C)C)C(C)(C)c2c1ccc1ccccc21)C(C)C)C(=O)N[C@@H](Cc1c[nH]cn1)C(=O)N1CCC[C@H]1C(=O)O [Cy5.5Ang1-7] (X1-GDRVYIHP-OH) |  |  |  |  |  |  |  |  |  | significantly lower
